Experimental data: patent US4218442A, “1-Epi-fortimicin A and derivatives” (Abbott Laboratories, priority 1979, dated 1980)
Where a name gives a salt, the structure may show the parent alone. Read-outs that look alike come from different tables or passages of the source.

Legend:
Assay in all cases: MIC, two-fold agar dilution, Mueller-Hinton agar
Assay type in all cases: cell-based
[1] = system: Pseudomonas aeruginosa KY 8516; conditions: read-out: minimum inhibitory concentration (MIC)
Procedure: (§1) The in vitro antibiotic activity is determined by a two-fold dilution test using Mueller-Hinton agar, 10 ml per Petri plate. The inoculum of approximately 1×10^5 of the indicated test organism is delivered by the Steer's replicator. The test is incubated at 37° C. for 24 hours.

[2] = system: Pseudomonas aeruginosa 27853; conditions: read-out: minimum inhibitory concentration (MIC)
Procedure: as §1

[3] = system: Pseudomonas aeruginosa BMH #10; conditions: read-out: minimum inhibitory concentration (MIC)
Procedure: as §1

[4] = system: Klebsiella pneumoniae 10031; conditions: read-out: minimum inhibitory concentration (MIC)
Procedure: as §1

[5] = system: Pseudomonas aeruginosa 209; conditions: read-out: minimum inhibitory concentration (MIC)
Procedure: as §1

[6] = system: Serratia marcescens 4003; conditions: read-out: minimum inhibitory concentration (MIC)
Procedure: as §1

[7] = system: Providencia stuartii 1577; conditions: read-out: minimum inhibitory concentration (MIC)
Procedure: as §1

[8] = system: Proteus vulgaris JJ; conditions: read-out: minimum inhibitory concentration (MIC)
Procedure: as §1

[9] = system: Klebsiella pneumoniae KY 4262; conditions: read-out: minimum inhibitory concentration (MIC)
Procedure: as §1

[10] = system: Pseudomonas aeruginosa KY 8512; conditions: read-out: minimum inhibitory concentration (MIC)
Procedure: as §1

[11] = system: Escherichia coli JUHL; conditions: read-out: minimum inhibitory concentration (MIC)
Procedure: as §1

[12] = system: Proteus mirabilis Fin #9; conditions: read-out: minimum inhibitory concentration (MIC)
Procedure: as §1

[13] = system: Enterobacter aerogenes 13048; conditions: read-out: minimum inhibitory concentration (MIC)
Procedure: as §1

[14] = system: Escherichia coli 76-2; conditions: read-out: minimum inhibitory concentration (MIC)
Procedure: as §1

[15] = system: Proteus rettgeri U-6333; conditions: Providencia rettgeri, read-out: minimum inhibitory concentration (MIC)
Procedure: as §1

[16] = system: Streptococcus faecalis 10541; conditions: read-out: minimum inhibitory concentration (MIC)
Procedure: as §1

[17] = system: Escherichia coli BL 3676(RES); conditions: read-out: minimum inhibitory concentration (MIC)
Procedure: as §1

[18] = system: Staphylococcus aureus Smith; conditions: read-out: minimum inhibitory concentration (MIC)
Procedure: as §1

[19] = system: Salmonella typhimurium Ed. #9; conditions: Salmonella enterica, read-out: minimum inhibitory concentration (MIC)
Procedure: as §1

[20] = system: Shigella sonnei 9290; conditions: 37° C., 24 hours, read-out: minimum inhibitory concentration (MIC)
Procedure: as §1

## CO[C@H]1[C@@H](O)[C@@H](N)[C@@H](O[C@H]2O[C@H]([C@H](C)N)CC[C@H]2N)[C@H](O)[C@@H]1N(C)C(=O)CN [Ex. 3, 1-Epi-fortimicin A tetrahydrochloride]
[1]; Pseudomonas aeruginosa, KY8516, 24 h
  MIC: 100 µg/mL
[2]; Pseudomonas aeruginosa, 27853, 24 h
  MIC: 50 µg/mL
[3]; Pseudomonas aeruginosa, 24 h
  MIC: 0.78 µg/mL
[4]; Klebsiella pneumoniae, 10031, 24 h
  MIC: 3.1 µg/mL
[5]; Pseudomonas aeruginosa, 209, 24 h
  MIC: 100 µg/mL
[6]; Serratia marcescens, 4003, 24 h
  MIC: 3.1 µg/mL
[7]; Providencia stuartii, 1577, 24 h
  MIC: 3.1 µg/mL
[8]; Proteus vulgaris, 24 h
  MIC: 12.5 µg/mL
[9]; Klebsiella pneumoniae, KY4262, 24 h
  MIC: 6.2 µg/mL
[10]; Pseudomonas aeruginosa, KY8512, 24 h
  MIC: 25 µg/mL
[11]; Escherichia coli, 24 h
  MIC: 12.5 µg/mL
[12]; Proteus mirabilis, 24 h
  MIC: 12.5 µg/mL
[13]; Klebsiella aerogenes, 13048, 24 h
  MIC: 6.2 µg/mL
[14]; Escherichia coli, 762, 24 h
  MIC: 6.2 µg/mL
[15]; U6333, 24 h
  MIC: 3.1 µg/mL
[16]; Enterococcus faecalis, 10541, 24 h
  MIC: 100 µg/mL
[17]; Escherichia coli, 24 h
  MIC: 50 µg/mL
[18]; Staphylococcus aureus, 24 h
  MIC: 1.56 µg/mL
[19]; TYPHIMURIUM, 24 h
  MIC: 3.1 µg/mL
[20]
  MIC: 12.5 µg/mL

## C[C@H](N)[C@@H]1CC[C@@H](N)[C@@H](O[C@@H]2[C@H](N)[C@H](O)[C@H](O)[C@@H](N(C)C(=O)CN)[C@H]2O)O1 [Ex. 13, 1-Epi-3-O-demethylfortimicin A tetrahydrochloride]
[1]; KY8516, Pseudomonas aeruginosa KY 8516, 37° C., 24 hours
  MIC: 25 µg/mL
[2]; Pseudomonas aeruginosa 27853, 37° C., 24 hours
  MIC: 6.2 µg/mL
[3]; Pseudomonas aeruginosa BMH #10, 37° C., 24 hours
  MIC: 0.78 µg/mL
[4]; Klebsiella pneumoniae 10031, 37° C., 24 hours
  MIC: 3.1 µg/mL
[5]; Pseudomonas aeruginosa 209, 37° C., 24 hours
  MIC: 100 µg/mL
[6]; Serratia marcescens 4003, 37° C., 24 hours
  MIC: 3.1 µg/mL
[7]; Providencia stuartii 1577, 37° C., 24 hours
  MIC: 6.2 µg/mL
[8]; Proteus vulgaris JJ, 37° C., 24 hours
  MIC: 3.1 µg/mL
[9]; KY4262, Klebsiella pneumoniae KY 4262, 37° C., 24 hours
  MIC: 6.2 µg/mL
[10]; KY8512, Pseudomonas aeruginosa KY 8512, 37° C., 24 hours
  MIC: 6.2 µg/mL
[11]; Escherichia coli JUHL, 37° C., 24 hours
  MIC: 6.2 µg/mL
[12]; Proteus mirabilis Fin #9, 37° C., 24 hours
  MIC: 6.2 µg/mL
[13]; Klebsiella aerogenes, Enterobacter aerogenes 13048, 37° C., 24 hours
  MIC: 3.1 µg/mL
[14]; 762, Escherichia coli 76-2, 37° C., 24 hours
  MIC: 3.1 µg/mL
[15]; U6333, Proteus rettgeri U-6333, 37° C., 24 hours
  MIC: 3.1 µg/mL
[16]; Enterococcus faecalis, Streptococcus faecalis 10541, 37° C., 24 hours
  MIC: 50 µg/mL
[17]; Escherichia coli BL 3676(RES), 37° C., 24 hours
  MIC: 25 µg/mL
[18]; Staphylococcus aureus Smith, 37° C., 24 hours
  MIC: 0.78 µg/mL
[19]; Salmonella typhimurium Ed. #9, 37° C., 24 hours
  MIC: 3.1 µg/mL
[20]
  MIC: 12.5 µg/mL
